Data taken from PubChem BioAssay (NCI).
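Step 1: Grow cells in 96-well plates. Step 2: Expose to compound for 48 hours at 5 concentrations. Step 3: Interpolate endpoints linearly; if unreached, use highest concentration. TGI: concentration producing complete growth inhibition.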

Experiments:
Assay in all cases: NCI anticancer screen, dose series, 48 h
HOP-18 NSCLC = test system: HOP-18 NSCLC
SNB-78 CNS = test system: SNB-78 CNS
RXF-631 renal = test system: RXF-631 renal
DMS 114 small cell lung = test system: DMS 114 small cell lung
XF 498 CNS = test system: XF 498 CNS

SMILES	TGI (HOP-18 NSCLC)	TGI (SNB-78 CNS)	TGI (RXF-631 renal)	TGI (DMS 114 small cell lung)	TGI (XF 498 CNS)
COc1cc(OC)c2c(O)cc(CC(C)O)cc2c1 (stereo not given)	> 100 µM	> 100 µM	> 100 µM	> 100 µM	> 100 µM
COc1ccc2[nH]c3c(c2c1)CCN(C)CC3	> 100 µM	> 100 µM	> 100 µM	–	> 100 µM
CC1OC(OCC2OC(Oc3c(-c4ccc(O)cc4)oc4cc(O)cc(O)c4c3=O)C(OC3OCC(O)(CO)C3O)C(O)C2O)C(O)C(O)C1O (stereo not given)	> 100 µM	> 100 µM	> 100 µM	> 100 µM	–
COC(=O)C12Oc3ccc(-c4ccc5c(c4O)C(=O)C4=CCC(C)C(O)C4(C(=O)OC)O5)c(O)c3C(=O)C1=CCC(C)C2O (stereo not given)	6.56 µM	17.4 µM	4.81 µM	3.81 µM	–
CC(=O)C1CC(C)=CCC12C(=O)Nc1ccccc12 (stereo not given)	> 100 µM	–	> 100 µM	> 100 µM	> 100 µM
Cc1ccc(C(=O)N(C2CCCCC2)C2CCCCC2)cc1N=NN(C)C	–	31.4 µM	–	–	–
O=c1c2ccccc2[nH]c(=S)n1-c1ccc(Br)cc1	> 100 µM	> 100 µM	–	> 100 µM	> 100 µM
CCc1cccc(C(C)C)c1NC(=O)C(=O)C(Cc1nc2ccccc2[nH]c1=O)C(=O)OC (stereo not given)	> 100 µM	–	–	30.5 µM	> 100 µM
CCOC/N=C(/N)NC#N	> 100 µM	> 100 µM	–	> 100 µM	> 100 µM
O=C(c1ccc(Cl)cc1)c1ccc(OCC(=O)N2CCN(c3ccccc3)CC2)cc1	> 100 µM	> 100 µM	–	> 100 µM	> 100 µM
CCCCOC(=O)CNC(=O)OCCCCC#CC#CCCCCOC(=O)NCC(=O)OCCCC	> 100 µM	> 100 µM	–	> 100 µM	> 100 µM
COC1=CC(=O)c2ccccc2C1(CCC=C(C)C)C1=NC(C)(C)CO1 (stereo not given)	> 100 µM	–	–	–	–
COc1cccc2cc(C)c(C(=O)c3ccccc3)nc12	> 100 µM	> 100 µM	> 100 µM	> 100 µM	> 100 µM
CCCCCc1cc(OC(=O)c2c(O)cc(OC)cc2CCCCC)cc(O)c1C(=O)O	–	57.6 µM	–	33.9 µM	32.5 µM
